# Measurements taken from patent US20240382509A1, “Cannabinoids C- and O-glycosides possessing anti-proliferative and anti-metastatic properties and process for preparation thereof” (Council of Scientific and Industrial Research, priority 2021, published 2024).
# Where two headings read alike, the source gives them in different places.
# Legend:
# [1] = tested on: MIAPaCa-2 cells; experiment: Cell scatter assay; type: cell-based, human; details: MIAPaCa-2, 1, 2, 3 μM, 36 h, compared to vehicle and parent molecule
# Procedure: Cell scatter assay MIAPaCa-2 cells were seeded onto a 12 well plate at a seeding density of 500 cells/well and kept for 4-5 days, and there was the formation of scatter colonies since the cell line itself is a metastatic cell line. Accordingly, they were treated with 1 μM, 2 μM & 3 μM of compound 2, 2a, 2b, 3, 3a, 4, 4a & 4b for 36 h, and upon termination, they were washed with PBS and observed under an inverted microscope at 20× magnification (FIG. 3).
# [2] = tested on: MCF-7 cells; experiment: MTT cell viability assay, MCF-7; type: cell-based; details: breast cancer cell of epithelial origin
# Procedure: (§1) Cell viability assay: The cell viability was determined by the standard MTT assay method. Briefly, Panc-1, HCT-116, A549, PC3, MIAPaca-2, HT-29, MDA-MB-231, MCF7 cells, and fR2cells were seeded in 96 well tissue culture plates (Nunc) at a density of 4×10^3 cells per well and treated with varying concentrations of the test compounds in triplicates. DMSO was taken as a vehicle, and its final concentration was maintained at 0.2% in the culture medium. Doxorubicin was employed as a positive control. After 44 h of incubation, MTT dye solution was added into the medium, and cells were incubated for another 4 h at 37° C. in 5% CO2. The amount of colored formazan derivatives formed was measured by taking optical density (OD) using a microplate reader (TECAN, Infinite M200 Pro) at 570 nm, and the percentage of cell viability was calculated. The IC50 values were calculated using GraphPad Prism software (Version 5.0).
# [3] = tested on: Panc-1 cells; experiment: Colony formation assay; type: cell-based; details: Panc-1, 1000 cells/well, 5 days, compared to corresponding parent compounds
# Procedure: Colony formation assay. […] cells were seeded onto 6 well plates with a seeding density of 1000 cells/well. The cells after attachment were treated with 2 (2a, 2b), 3 (3a, 3b), 4 (4a, 4b) along with DMSO as a vehicle control and incubated for 5-6 days. After incubation, the plates were washed with ice-cold PBS, and the cells were fixed with methanol for 5 min. After fixing. the cells were stained with 0.2% crystal violet stain for 1 h. The cells were then washed with distilled water to remove the stain and were observed under an inverted microscope at 20× magnification.
# The anti-proliferative properties of glycosidic derivatives were further analysed by colony formation assay in pancreatic cancer cells. The novel C-glycosidic derivatives of compounds 1, 2, 3 and 4 viz 1b, 2b, 3b & 4b display anti-proliferative property (FIG. 2). Panc-1cells were seeded onto 6 well plates at seeding density 1000 cells/well and treated with indicated concentration of 1b, 2b, 3b and 4b derivatives along with their parent compounds and DMSO as vehicle for 5 days. Upon termination the cells were stained with crystal violet and images of field were photographed.
# [4] = tested on: MIAPaCa-2 cells; experiment: MTT cell viability assay, MIAPaCa-2; type: cell-based, human
# Procedure: as §1
# [5] = tested on: Panc-1 cells; experiment: MTT cell viability assay, Panc-1; type: cell-based; details: for IC50: pancreatic cancer cells; for fold activity compared to parent compound, pancreatic cancer cells: ratio of IC50 parent vs derivative, Panc-1
# Procedure: as §1
# [6] = tested on: PC3 cells; experiment: MTT cell viability assay, PC3; type: cell-based
# Procedure: as §1
# [7] = tested on: HCT-116 cells; experiment: MTT cell viability assay, HCT-116; type: cell-based; details: for IC50: colorectal adenocarcinoma cells
# Procedure: as §1
# [8] = tested on: human colorectal adenocarcinoma cell line (HT-29); experiment: MTT cell viability assay, HT-29; type: cell-based; details: for IC50: human colorectal adenocarcinoma cell line
# Procedure: as §1
# [9] = tested on: lung adenocarcinoma cells (A549); experiment: MTT cell viability assay, A549; type: cell-based
# Procedure: as §1
# [10] = tested on: 4T1 mouse mammary carcinoma cells; experiment: 4T1 allograft breast cancer model, anti-tumor and anti-metastatic efficacy; type: in vivo; details: tumor lysate immunoblot, 30 mg/kg
# Procedure: In vivo anti-metastatic and anti-tumor efficacy studies. 4T1 mouse mammary carcinoma cells is a highly aggressive cell line that forms tumors when grafted in Balb/c mice. […] All the in vivo experimental protocols were approved by the Institutional Animal Ethics Committee, CPCSEA, of the Indian Institute of Integrative Medicine, Jammu. The animals were maintained at 22° C. with a 12 h light-dark cycle and free access to feed and water inside the institutional animal house. Proper care was taken to maintain them in a healthy condition and to avoid any risk of possible pathogenic contaminations. For subcutaneous implantation of 4T1 cells, the Balb/c mice were distributed into four groups bearing five mice in each group. For tumor induction, 1.5 million 4T1 cells were suspended in serum-free media and injected into the mammary pad of the animal and kept in the animal house for tumor induction. After the tumor reached an adequate size (30-150 mm^3) the mice in the allotted groups were treated with vehicle (normal saline), 15 and 30 mg/kg 2a & 30 mg/kg DIM (positive control) for every alternate day and was continued for two weeks. After the treatment, the mice were sacrificed by cervical dislocation, and the tumor was dissected out from the mammary pad, the tumor volume was measured, and images were taken. Subsequently, to examine the anti-metastatic property of the compound 2a, the chest cavity was dissected to remove the lungs, and after washing with PBS, the metastatic nodules in the lung due to 4T1 migration were checked and subsequently counted.
# The anti-proliferative as well as anti-metastatic role of compound 2a was studied in 4T1 allograft breast cancer model. Briefly, 1.5×10^6 4T1 mammary breast cancer cells were injected in mouse mammary pad and kept undisturbed until the formation of tumor. Subsequently, the mice were treated with 15 and 30 mg/kg of compound 2a along with a positive control 30 mg/kg di-indoyl methane (DIM) molecule and normal saline as vehicle. The drugs were administered intraperitonially for each alternate day for 2 weeks. The animals were sacrificed and tumours were harvested from the mammary pad and tumor weight was measured (FIG. 7a & b). Moreover, the lungs were also removed and photographed to study the presence of metastatic patches. […] Furthermore, the tumors were subjected to tissue lysis and immunoblot analysis was performed to study the expression of Snail-1. Twist-1, STAT-3, Vimentin and E-cadherin.
# [11] = Homo sapiens, MCF7, 48 h, MTT, 48 h, read-out: Cytotoxicity (IC50) MCF-7
# [12] = Homo sapiens, MIA PaCa-2, 48 h, MTT, 48 h, read-out: Cytotoxicity (IC50) MIAPaCa-2
# [13] = Homo sapiens, PANC-1, 48 h, MTT, 48 h, read-out: Cytotoxicity (IC50) Panc-1
# [14] = Homo sapiens, PC-3, 48 h, MTT, 48 h, read-out: Cytotoxicity (IC50) PC3
# [15] = Homo sapiens, HCT-116, 48 h, MTT, 48 h, read-out: Cytotoxicity (IC50) HCT-116
# [16] = Homo sapiens, HT-29, 48 h, MTT, 48 h, read-out: Cytotoxicity (IC50) HT-29
# [17] = Homo sapiens, A549, 48 h, MTT, 48 h, read-out: Cytotoxicity (IC50) A549
# [18] = MTT, 48 h, read-out: Cytotoxicity (IC50) MCF-7
# [19] = MTT, 48 h, read-out: Cytotoxicity (IC50) MIAPaCa-2
# [20] = MTT, 48 h, read-out: Cytotoxicity (IC50) Panc-1
# [21] = MTT, 48 h, read-out: Cytotoxicity (IC50) PC3
# [22] = MTT, 48 h, read-out: Cytotoxicity (IC50) HCT-116
# [23] = MTT, 48 h, read-out: Cytotoxicity (IC50) HT-29
# [24] = MTT, 48 h, read-out: Cytotoxicity (IC50) A549
# [25] = Homo sapiens, MCF7, 48 h, read-out: Cytotoxicity (IC50) MCF-7, MTT, 48 h
# [26] = Homo sapiens, MIA PaCa-2, 48 h, read-out: Cytotoxicity (IC50) MIAPaCa-2, MTT, 48 h
# [27] = Homo sapiens, PANC-1, 48 h, read-out: Cytotoxicity (IC50) Panc-1, MTT, 48 h
# [28] = Homo sapiens, PC-3, 48 h, read-out: Cytotoxicity (IC50) PC3, MTT, 48 h
# [29] = Homo sapiens, HCT-116, 48 h, read-out: Cytotoxicity (IC50) HCT-116, MTT, 48 h
# [30] = Homo sapiens, HT-29, 48 h, read-out: Cytotoxicity (IC50) HT-29, MTT, 48 h
# [31] = Homo sapiens, A549, 48 h, read-out: Cytotoxicity (IC50) A549, MTT, 48 h
structure (smiles),measurement,setting,value
"CCCCCc1cc2c(c(O)c1[C@@H]1OC(CO)[C@@H](O)C(O)C1O)[C@@H]1C=C(C)CC[C@H]1C(C)(C)O2 (stereo partly drawn) [Compound 2b, Δ^9-tetrahydrocannabinol-2-C-β-D-glucopyranoside]",cell scattering,[1],typical clumping of scatter cells
same,IC50,[2]; [11],7.4 µM
same,anti-proliferative potential in colony formation assay,[3],strong anti-proliferative potential
same,IC50,[4]; [12],1.59 µM
same,IC50,[5]; [13],3.16 µM
same,"fold activity compared to parent compound, pancreatic cancer cells",[5],6.6 fold
same,IC50,[6]; [14],28 µM
same,IC50,[7]; [15],43.2 µM
same,IC50,[8]; [16],10.8 µM
same,"fold anti-proliferative activity compared to parent compound, HT-29",[8]; ratio of IC50 parent 2 vs derivative,more than 10 fold
same,IC50,[9]; [17],1.32 µM
"CCCCCc1cc(O)c2c(c1)OC(C)(C)[C@@H]1CC=C(C)C[C@@H]21 [Compound 3, Δ^8-tetrahydrocannabinol, reference compound]",IC50,[2]; [18],26.7 µM
same,IC50,[4]; [19],2.46 µM
same,IC50,[5]; [20],50.9 µM
same,IC50,[6]; [21],28 µM
same,IC50,[7]; [22],27.3 µM
same,IC50,[8]; [23],> 100 µM
same,IC50,[9]; [24],11.6 µM
"CCCc1cc2c(c(O)c1[C@@H]1OC(CO)[C@@H](O)C(O)C1O)[C@@H]1CC(C)=CC[C@H]1C(C)(C)O2 (stereo partly drawn) [Compound 1b, Δ^8-tetrahydrocannabivarin-2-C-β-D-glucopyranoside]",IC50,[2]; [11],> 100 µM
same,anti-proliferative potential in colony formation assay,[3],strong anti-proliferative potential
same,IC50,[4]; [12],9.2 µM
same,IC50,[5]; [13],4.12 µM
same,"fold activity compared to parent compound, pancreatic cancer cells",[5],> 2 fold
same,IC50,[6]; [14],24 µM
same,IC50,[7]; [15],3.91 µM
same,IC50,[8]; [16],40.2 µM
same,IC50,[9]; [17],35.7 µM
"CCCCCc1cc(O)c2c(c1)OC(C)(C)[C@@H]1CCC(C)=C[C@@H]21 [Compound 2, Δ^9-tetrahydrocannabinol, reference compound]",IC50,[2]; [18],43 µM
same,IC50,[4]; [19],4.47 µM
same,IC50,[5]; [20],21.1 µM
same,IC50,[6]; [21],> 100 µM
same,IC50,[7]; [22],19 µM
same,IC50,[8]; [23],> 100 µM
same,IC50,[9]; [24],11.7 µM
"CCCCCc1cc2c(c(O)c1[C@@H]1OC(CO)[C@@H](O)C(O)C1O)-c1cc(C)ccc1C(C)(C)O2 (stereo partly drawn) [Compound 4b, Cannabinol-2-C-β-D-glucopyranoside]",cell scattering,[1],typical clumping of scatter cells
same,IC50,[2]; [11],43.1 µM
same,anti-proliferative potential in colony formation assay,[3],strong anti-proliferative potential
same,IC50,[4]; [12],8.31 µM
same,IC50,[5]; [13],13.9 µM
same,IC50,[6]; [14],39 µM
same,IC50,[7]; [15],3 µM
same,"fold anti-proliferative activity compared to parent compound, HCT-116",[7]; ratio of IC50 parent 4 vs derivative,> 15 fold
same,IC50,[8]; [16],11.5 µM
same,IC50,[9]; [17],22.6 µM
"CCCc1cc(O[C@@H]2OC(CO)[C@@H](O)C(O)C2O)c2c(c1)OC(C)(C)[C@@H]1CC=C(C)C[C@@H]21 (stereo partly drawn) [Compound 1a, Δ^8-tetrahydrocannabivarin-1-O-β-D-glucopyranoside]",IC50,[2]; [25],90.6 µM
same,IC50,[4]; [26],> 100 µM
same,IC50,[5]; [27],21.4 µM
same,IC50,[6]; [28],> 100 µM
same,IC50,[7]; [29],32.9 µM
same,IC50,[8]; [30],> 100 µM
same,IC50,[9]; [31],53.1 µM
"c1ccc2c(Cc3c[nH]c4ccccc34)c[nH]c2c1 [DIM, di-indoyl methane, reference compound]","tumor expression of Snail-1, STAT-3 and Vimentin (positive control)",[10],decreases significantly
"CCCCCc1cc(O)c2c(c1)OC(C)(C)c1ccc(C)cc1-2 (single isomer, unassigned) [Compound 4, Cannabinol, reference compound]",IC50,[2]; [25],50.6 µM
same,IC50,[4]; [26],1.63 µM
same,IC50,[5]; [27],11.8 µM
same,IC50,[6]; [28],28 µM
same,IC50,[7]; [29],47.1 µM
same,IC50,[8]; [30],20.4 µM
same,IC50,[9]; [31],2.13 µM
"CCCc1cc(O)c2c(c1)OC(C)(C)[C@@H]1CCC(C)=C[C@@H]21 [Compound 1, Δ^9-tetrahydrocannabivarin, reference compound]",IC50,[2]; [18],> 100 µM
same,IC50,[4]; [19],23.2 µM
same,IC50,[5]; [20],9.28 µM
same,IC50,[6]; [21],88.2 µM
same,IC50,[7]; [22],10.7 µM
same,IC50,[8]; [23],46.2 µM
same,IC50,[9]; [24],39.4 µM
